Residue numbers refer to the chain shown, from its start. “Also recorded” adds a separate entry of the source.

We go through 3 molecules from patent US20090143285A1, “TARGET PROTEIN AND TARGET GENE FOR DRUG DISCOVERY AND SCREENING METHOD” (REVERSE PROTEOMICS RESEARCH INSTITUTE CO., LTD., priority 2005, published 2009).

For one assay, the target named is T1, FLJ38897-derived protein (Homo sapiens, UniProt P57764).
T1 construct: His-tag (N); made in house; host or cells: Escherichia coli BL21star(DE3)pLysS
T1 sequence (P57764 265-484): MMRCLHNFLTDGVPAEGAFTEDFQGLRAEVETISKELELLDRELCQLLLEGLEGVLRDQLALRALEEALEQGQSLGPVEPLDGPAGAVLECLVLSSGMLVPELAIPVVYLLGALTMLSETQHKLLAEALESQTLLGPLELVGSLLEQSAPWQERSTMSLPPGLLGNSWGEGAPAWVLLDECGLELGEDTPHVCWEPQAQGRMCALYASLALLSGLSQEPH
Briefly: SEC/MS interaction analysis, FLJ38897-derived protein (GSDMDC1). It is filed as binding. Particulars: spin column method; mixture with protein vs buffer solution alone; data not shown. The text has this:
(§1) To analyze the interactions between commonly used drugs and proteins expressed from human full-length cDNA clones while keeping both the proteins and the compounds in non-modified, non-immobilized state, size exclusion chromatography (SEC) and mass analysis were used in combination. The specific procedures are shown below.
(§2) The compound-protein mixture prepared in step 1 was subjected to chromatography using an SEC column, the compound and the protein were separated by SEC, and the compound that interacted with the bound compound or protein contained in the protein fraction was analyzed using a mass analyzer.
(§3) Protein concentrations were measured using BCA Protein Assay (PIERCE), in consideration of the purity calculated by SDS-PAGE.
(§4) Mass analysis was performed using LCQ DECA XP (Thermoelectron) or Q-TOF micro (Micromass), equipped with an ESI probe. The LC pump used was Agilent 1100 (Yokogawa Analytical Systems), and the autosampler used was HTC-PAL (CTC Analytics) equipped with a cooling stacker. The SEC column used was a micro-LC column or a 384-well spin column. […]
(§5) In the 384-well spin column method, Unifilter 100 (Whatman), packed with 10 μL (dry volume) of Bio-Gel P6 (BIO-RAD) and swollen with milliQ water, was used as the SEC column. […] The SEC spin column was mounted on an acetonitrile-aliquoted 384-well U-bottom plate and centrifuged; the SEC spin column filtrate, which is a protein fraction, was recovered in 50% acetonitrile. The protein precipitate produced by the acetonitrile was removed via centrifugation and filtration for deproteinization; the resulting filtrate was concentrated by centrifugal concentration and re-dissolved in 10 μL of 50% methanol to obtain a mass analysis sample. The mobile phase supplied to the mass analyzer was 0.1% formic acid/50% methanol solution in the positive ion mode, and 0.1% ammonia/50% methanol solution in the negative ion mode; these mobile phases were used at a flow rate of 40 μL/min. 2-μL of mass analysis samples were injected using an autosampler at 2-minute intervals; the mass spectral intensity of the compound was measured to retrieve the spectral intensity of the pharmaceutical compound contained in the SEC spin column filtrate (protein fraction eluted from SEC).

The next assay deals with T2, FLJ41991-derived protein (Homo sapiens, UniProt P57764, E293G).
T2 construct: His-tag (N); made in house; host or cells: Escherichia coli BL21star(DE3)pLysS (pDEST17)
T2 sequence (P57764 265-484 E293G): T1 sequence (P57764 265-484) with E29G
Briefly: SEC/MS interaction analysis, FLJ41991-derived protein (GSDMDC1). It is filed as binding. Particulars: for interaction judged from spectrum intensity of the compound in the SEC spin column filtrate (protein fraction eluted from SEC): spin column method, doses of both compound and protein varied.
Source text: as §1, §2, §3, §4, §5

Assay [1] relates to FLJXXXXX-derived proteins. Briefly: SEC/MS spin column interaction analysis of FLJXXXXX-derived proteins and various compounds (Tables 30-1 to 30-4). The assay is classed as binding, human. Particulars: SEC spin column filtrate, spectral intensity increased with doses of compound and protein.
Setting [2] is: compound 12.5 μM, protein 10 μM.
[3] abbreviates: compound 12.5 μM, protein 25 μM.
The mark [4] stands for this setting: compound 62.5 μM, protein 10 μM.
Where [5] appears, read: compound 62.5 μM, protein 25 μM.

On to `COc1ccc(CCN2CCC(Nc3nc4ccccc4n3Cc3ccc(F)cc3)CC2)cc1` [astemizole], for which the “interaction judged from mass spectrum peak intensity of the compound in the spin column filtrate” value (“interaction judged … in the spin column filtrate” for short) on FLJ38897-derived protein is “there was an interaction”. In addition, the “spectrum intensity of the compound in the SEC spin column filtrate” value amounted to 24899 at FLJ41991-derived protein (compound 12.5 μM, protein 0 μM); 60014 on FLJ41991-derived protein (compound 12.5 μM, protein 5 μM); 160855 at FLJ41991-derived protein (setting [2]); 908771 at FLJ41991-derived protein (setting [3]); 19274 at FLJ41991-derived protein (compound 25 μM, protein 0 μM); 89714 on FLJ41991-derived protein (compound 25 μM, protein 5 μM). For the same molecule, the “spectrum intensity of the compound in the SEC spin column filtrate” value at FLJ41991-derived protein (compound 25 μM, protein 10 μM) turned out to be 732296; at FLJ41991-derived protein (compound 25 μM, protein 25 μM) it was 2056843; at FLJ41991-derived protein (compound 62.5 μM, protein 0 μM), 27212; on FLJ41991-derived protein (compound 62.5 μM, protein 5 μM), 361364; at FLJ41991-derived protein (setting [4]), 2309029; at FLJ41991-derived protein (setting [5]), 5171023. The “interaction judged from spectrum intensity of the compound in the SEC spin column filtrate (protein fraction eluted from SEC)” value on FLJ41991-derived protein is listed as “concentration-dependent interaction”. Besides, in assay [1], the “FLJ No of the derived protein with which the compound was judged to exhibit a concentration-dependent interaction” value (“FLJ No of the derived protein” for short) is on record as “FLJ38897; also recorded: FLJ41991”.
`CN1[C@@H]2CC[C@H]1C[C@@H](OC(c1ccccc1)c1ccccc1)C2` [benztropine]: the “interaction judged … in the spin column filtrate” value at FLJ38897-derived protein is recorded as “there was an interaction”. The “spectrum intensity of the compound in the SEC spin column filtrate” value worked out at 143943 on FLJ41991-derived protein (compound 12.5 μM, protein 0 μM); 220928 at FLJ41991-derived protein (compound 12.5 μM, protein 5 μM); 285013 at FLJ41991-derived protein (setting [2]); 489071 on FLJ41991-derived protein (setting [3]); 152947 at FLJ41991-derived protein (compound 25 μM, protein 0 μM); 491863 at FLJ41991-derived protein (compound 25 μM, protein 5 μM). In addition, the “spectrum intensity of the compound in the SEC spin column filtrate” value on FLJ41991-derived protein (compound 25 μM, protein 10 μM) was found to be 560686; on FLJ41991-derived protein (compound 25 μM, protein 25 μM) it was 1352077; on FLJ41991-derived protein (compound 62.5 μM, protein 0 μM) it was 911727; on FLJ41991-derived protein (compound 62.5 μM, protein 5 μM), 1861766; at FLJ41991-derived protein (setting [4]), 2757526; on FLJ41991-derived protein (setting [5]) it was 3061987. In addition, the “interaction judged from spectrum intensity of the compound in the SEC spin column filtrate (protein fraction eluted from SEC)” value at FLJ41991-derived protein is “concentration-dependent interaction”. Moreover, the “FLJ No of the derived protein” value in assay [1] was “FLJ38897; also recorded: FLJ41991”.
As to `CN(C)CC/C=C1/c2ccccc2Sc2ccc(Cl)cc21` [chlorprothixene], the “interaction judged … in the spin column filtrate” value at FLJ38897-derived protein was “there was an interaction”. Moreover, the “spectrum intensity of the compound in the SEC spin column filtrate” value came out at 178622 at FLJ41991-derived protein (compound 12.5 μM, protein 0 μM); 175333 on FLJ41991-derived protein (compound 12.5 μM, protein 5 μM); 226245 on FLJ41991-derived protein (setting [2]); 393132 at FLJ41991-derived protein (setting [3]); 161141 on FLJ41991-derived protein (compound 25 μM, protein 0 μM); 149738 on FLJ41991-derived protein (compound 25 μM, protein 5 μM). Besides, the “spectrum intensity of the compound in the SEC spin column filtrate” value is on record as 277798 on FLJ41991-derived protein (compound 25 μM, protein 10 μM); 490640 on FLJ41991-derived protein (compound 25 μM, protein 25 μM); 156021 at FLJ41991-derived protein (compound 62.5 μM, protein 0 μM); 210998 at FLJ41991-derived protein (compound 62.5 μM, protein 5 μM); 626223 on FLJ41991-derived protein (setting [4]); 2564975 on FLJ41991-derived protein (setting [5]). Besides, on FLJ41991-derived protein, the “interaction judged from spectrum intensity of the compound in the SEC spin column filtrate (protein fraction eluted from SEC)” value is reported as “concentration-dependent interaction”. Further, the “FLJ No of the derived protein” value in assay [1] is reported as “FLJ38897; also recorded: FLJ41991”.
